We go through 13 compounds from US5885786A, “Methods for screening of substances for inhibition of multidrug resistance” (priority 1996, dated 1999).

Entries after “also recorded” stand apart in the source; their conditions may differ. *1 amine or outer side, *2 acyl side, *3 side chain or, on linkers, in order; H or OH if unused. Where a SMILES comes first, the peptide text is derived from it. Bridges are numbered along the chain shown (N, C = ends). Roman numbers before positions name the chains, in order. [ ]: non-standard residue; d: D form. Actinocin(9to1) = Cc1c2oc3c(C)ccc(C(=O)[*:1])c3nc-2c(C(=O)[*:2])c(N)c1=O; NMeV = CN[C@H](C(=O)O)C(C)C; Sar = CNCC(=O)O

The conditions of series [1]: cited from earlier work.
Series [2] relates to glycosylation of ceramide in MCF-7-AdrR cells (UDP-glucose:ceramide glucosyltransferase). Put plainly: Glycosylation of C6-ceramide and natural glycosphingolipid synthesis, [3H]galactose labeling. The series is classed as cell-based. How it is done: FIG. 14A and FIG. 14B. Effect of Tamoxifen on Ceramide Synthesis and Glycosylation in MCF-7-AdrR Cells. FIG. 14: A Influence of tamoxifen on ceramide synthesis. The experiment was conducted as described in the legend to FIG. 13. Aliquots of the total lipid extract were based-hydrolyzed as described in Example I, separated by TLC using solvent system IV, and the resolved [^3 H]ceramide was quantitated by liquid scintillation spectrometry. Results are the mean±SEM of duplicate determinations from two separate experiments. FIG. 14B: Effect of tamoxifen on glycosylation of C6 -ceramide. Cells, in 100×20 mm culture dishes, were preincubated without or with 5.0 μM tamoxifen for 30 min, followed by incubation without or with 5.0 μM C6 -ceramide:BSA (prepared at a 1:1 molar ratio) for an additional 30 min. Cells were labeled thereafter with 1.0 μCi/ml [^3 H]galactose for 24 h. [3H]Galactose uptake was determined and found to be similar in all experimental points (1.0×10^6 cpm/dish). The total extracted lipid was applied to TLC separation and [^3 H]glycosphingolipids were analyzed as described in the legend to FIG. 10. The autoradiography of a representative chromatogram is shown.
In order to explore this notion, a short-chain ceramide analog with a 6-carbon N-acyl group (C6 -ceramide), was utilized as a substrate.

Series [3] has as its system P388-adriamycin resistant cells. Particulars: literature; cited from earlier work.
The test system of a further series is P-glycoprotein. The settings on record: literature; cited from earlier work.
For a further series, the system named is acid sphingomyelinase. Particulars: literature; cited from earlier work.
For series [4] the following is noted: cited from earlier work; for absorption (in words): oral or unspecified.
Series [5] relates to OVCAR-3 (MDR ovarian carcinoma). The settings on record: clinically relevant concentrations (Rogan et al., 1984); cited from earlier work.
The subject of series [6] is lipid-1 and -2 formation in MCF-7-AdrR cells. Put plainly: Effect of inhibitors of sphingolipid biosynthesis on lipid-1 and -2 formation. It is filed as cell-based. As for the experimental part: FIG. 5A, FIG. 5B, and FIG. 5C. Effect of inhibitors of sphingolipid biosynthesis on lipid-1 and -2 formation in MCF-7-AdrR cells. Cells, grown to near-confluency in 100×20 mm culture dishes, were radiolabeled with [^3 H]palmitic acid (FIG. 5A), or [^3 H]serine (FIG. 5B, FIG. 5C), in the presence or absence of 10 mM L-cycloserine (FIG. 5A), 50 μM FB1 (FIG. 5B), or 20 μM PPMP (FIG. 5C), for 24 h in RPMI-1640 medium containing 0.1% BSA. Extracted lipids were analyzed by TLC using solvent system II (FIG. 5A, FIG. 5B), or solvent system III (FIG. 5C) as described in Example I. Lac-cer, lactosylceramide.
The effects of various inhibitors of sphingolipid biosynthesis were investigated, using MCF-7-AdrR cells, labeled with either [^3 H]palmitic acid, or [^3 H]serine. The first enzymatic reaction in sphingoid base biosynthesis, catalyzed by serine:palmitoyltransferase, is the formation of 3-ketosphinganine from serine and palmitoyl-CoA (FIG. 1).

The subject of series [7] is glycosylceramide synthesis in MCF-7-AdrR cells. Put plainly: Effect of PPMP on cellular glycosylceramide levels, [3H]serine 24 h. The series is classed as cell-based. Particulars: FIG. 16A. From the text: FIG. 16A and FIG. 16B. […] FIG. 16A: Effect of PPMP on cellular glycosylceramide levels.
A further series has as its system MCF-7-AdrR cells. As to the kind of experiment: Cell proliferation (MTS) assay: adriamycin toxicity and chemosensitization. The settings on record: for effect on adriamycin toxicity / chemosensitization (in words): 5.0 μM tested drug + adriamycin, 72 h, FIG. 15A, 16B. From the text:
FIG. 15A and FIG. 15B. […] FIG. 15B: Glycosylceramide levels in MDR Cells following drug treatment. […] In order to avoid differences in [^3 H]glycosylceramide values which account for cell death, the same amount of total radioactive lipid from each sample was applied to TLC separation.
FIG. 16A and FIG. 16B. […] FIG. 16A: Effect of PPMP on cellular glycosylceramide levels. […] [^3 H]Glycosylceramide was quantitated as described in the legend to FIG. 9.
Vehicle (acetone, ethanol) was always added to control (minus drug) wells. The cytotoxic activity of a drug was determined using the Promega CellTiter 96™ AQueous MTS cell proliferation assay kit. Each experimental point was performed in six replicates. MTS/PMS solution (20 μl/well) was aliquoted into all wells, and the cells were incubated for 2-3 h, or until an O.D. of 0.9-1.0 was obtained as a highest reading. Thereafter, absorbence at 490 nm was recorded using an ELISA plate reader (Molecular Devices, San Diego, Calif.).

For series [8] the following is noted: cited from earlier work. The source holds these as a separate data set.
For series [9] the following is noted: in vivo; cited from earlier work.
In series [10] the test system is glycosylceramide formation in MCF-7-AdrR cells. Put plainly: Inhibition of [3H]glycosylceramide formation in MCF-7-AdrR cells (TLC, liquid scintillation). The series is classed as cell-based. The settings on record: 5.0 μM drug, 24 h, MCF-7-AdrR, FIG. 11B; read-out: inhibition of glycosylceramide formation (cpm tritium). As for the experimental part: FIG. 9. […] Values represent the mean of determinations from three separate experiments, and are calculated as the percent glycosylceramide in the total lipid tritium extract.
FIG. 11A and FIG. 11B. […] FIG. 11: A Autoradiography. […] For autoradiography equal aliquots by volume of total lipid extract were applied to TLC plates. […] [^3 H]Glycosylceramide, visualized in panel A, was quantitated as described in the legend to FIG. 9. Each value represents mean±SEM of determinations from three separate experiments.
FIG. 12. […] [^3 H]Glycosylceramide was quantitated as described in the legend to FIG. 9. Results represents the mean±SEM of determinations from three separate experiments.
MCF-7 cells, grown in medium containing 10% FBS, were switched to media containing 5% FBS. Cell lipids were radiolabeled by adding [^3 H]serine (2.0 μCi/ml), [^3 H]palmitic acid (1.0 μCi/ml), or [^3 H]galactose (1.0 μCi/ml) to the culture medium for the indicated times. Other radiolabels can be substituted. Cells were then rinsed twice with PBS, pH 7.4, and 2 ml of ice-cold methanol containing 2% acetic acid was added. The cells were scraped free, transferred to glass test tubes (13×100 mm), and lipids were extracted by the addition of chloroform (2 ml) followed by water (2 ml). The resulting organic lower phase was withdrawn and evaporated under a stream of nitrogen. Lipids were resuspended in 100 μL of chloroform/methanol (1:1, v/v), and aliquots were applied to TLC plates.
Lipid analysis was carried out by TLC using solvent system I: chloroform/methanol/ammonium hydroxide (40:10:1, v/v) for glycosylceramide separation, solvent system II: chloroform/methanol/water (60:40:8, v/v) for sphingoglycolipid separation, or solvent system III: chloroform/methanol/acetic acid/water (50:30:7:3, v/v) for sphingomyelin separation. For determination of ceramides, an aliquot of the chloroform-soluble lipids was base-hydrolyzed in 0.1N KOH in methanol for 1 h at 37° C., lipids were re-extracted, and separated by TLC using solvent system IV: hexane/diethyl ether/formic acid (60:40:1, v/v).
Radiochromatograms were sprayed with EN^3 HANCE, and exposed for 3-7 days for autofluorgraphy. TLC areas, aligned with bands on the autoradiographs or with iodine-stained commercial lipid standards, were scraped from the plate. Water (0.5 ml) was added to the plate scrapings followed by 4.5 ml of EcoLume counting fluid, and the samples were quantitated by liquid scintillation spectrometry.

Setting [11] is: 5.0 μM C6-ceramide, FIG. 14B, […].
Where [12] appears, read: 10 mM L-cycloserine, [3H]palmitic acid, FIG. 5A.

`CO[C@@]12[C@H](COC(N)=O)C3=C(C(=O)C(C)=C(N)C3=O)N1C[C@@H]1N[C@@H]12` [Mitomycin]: the “fraction of dose excreted unchanged in the urine” value in [1] (human, in vivo, iv) is reported as “Approximately 10%”. Besides, the “clearance from the serum (in words)” value in series [1] (intravenous) is given as “rapidly cleared”.
In the case of `CCCCCCCCCCCCC/C=C/[C@@H](O)[C@H](CO)NC(=O)CCCCC` [C6 -ceramide], the “natural glycosylceramide level (in words)” value in [2] (5.0 μM C6-ceramide, FIG. 14B) is listed as “not altered”. Moreover, in series [2] (setting [11]), the “reduction of ganglioside synthesis” value came out at 35% and the “reduction of natural lactosylceramide synthesis” value was determined as 33%. Also, the “formation of C6-glycosylceramide (in words)” value in series [2] (cells incubated with C6-ceramide) is given as “clearly visible”.
With `COc1cc(C[C@H]2c3cc(OC)c(OC)cc3CCN2C)c(Oc2cc3c(cc2OC)-c2c(OC)c(OC)cc4c2[C@H](C3)N(C)CC4)cc1OC` [thaliblastine], in series [3], the “reversal of MDR / adriamycin resistance in P388 cells (in words)” value is “reverses adriamycin resistance”. For the same compound, the “binding to P-glycoprotein (in words)” value in the series on P-glycoprotein is “binds to P-glycoprotein”.
As to `COc1ccc(CCN(C)CCCOc2ccc(S(=O)(=O)c3c(C(C)C)cn4ccccc34)cc2)cc1OC` [SR33557], in series [3], the “reversal of MDR / adriamycin resistance in P388 cells (in words)” value is “reverse MDR”. Also, in the series with acid sphingomyelinase, the “inhibition of acid sphingomyelinase (in words)” value was “inhibition of acid sphingomyelinase”.
As to `N.N.[Cl][Pt][Cl]` [cisplatin], in [4], the “absorption (in words)” value is on record as “not absorbed orally”. For the same compound, in series [5], the “resistance of OVCAR-3 to the drug (in words)” value was “resistant”.
In general, IC50 refers to the midpoint of a concentration-inhibition curve. Consider `CCCCCCCCCCCCCCCC(=O)NC(CN1CCOCC1)C(O)c1ccccc1` (stereo not shown) [PPMP], for which, in series [6] (20 μM PPMP, FIG. 5C), the “ceramide levels (in words)” value was “elevation in ceramide levels”; the “lactosylceramide and gangliosides (in words)” value is given as “concomitant reduction”. Also, in [6] (20 μM PPMP, [3H]serine, FIG. 5C), the “formation of lipid-1 and -2 (in words)” value is listed as “blocked completely”. For the same compound, the inhibition at 5 µM in series [7] (24 h, 5.0 μM PPMP, read-out: maximal reduction in cellular glycosylceramide levels) stood at 86%. Also, the concentration for half-maximal inhibition (IC50) in series [7] (PPMP, [3H]serine 24 h, read-out: IC50 for inhibition of glycosylceramide formation) is 900 nM. In addition, in the series on MCF-7-AdrR cells, the “effect on adriamycin toxicity / chemosensitization (in words)” value is “clear sensitization; also recorded: effectively decreased cell survival”. In the series on MCF-7-AdrR cells (MCF-7-AdrR, alone), the “effect of the substance alone on cell survival (in words)” value is recorded as “no influence itself on cell viability; also recorded: no effect”.
Turning to `CCCCC(C)C(OC(=O)CC(CC(=O)O)C(=O)O)C(CC(C)CC(O)CCCCC(O)CC(O)C(C)N)OC(=O)CC(CC(=O)O)C(=O)O` (stereo not shown) [FB1], the “level of both lipid-1 and -2 (in words)” value in series [6] (50 μM FB1, [3H]serine, FIG. 5B) is reported as “profound reduction”.
As for `Cc1c2oc3c(C)ccc(C(=O)N[C@@H]4C(=O)N[C@H](C(C)C)C(=O)N5CCC[C@H]5C(=O)N(C)CC(=O)N(C)[C@@H](C(C)C)C(=O)O[C@@H]4C)c3nc-2c(C(=O)N[C@@H]2C(=O)N[C@H](C(C)C)C(=O)N3CCC[C@H]3C(=O)N(C)CC(=O)N(C)[C@@H](C(C)C)C(=O)O[C@@H]2C)c(N)c1=O` [Actinomycin D] (I: T[dV]P[Sar][NMeV] / II: T[dV]P[Sar][NMeV]; ester I:1-I:C, II:1-II:C; linker I:N-II:N via Actinocin(9to1)), in series [4] (in vivo, iv), the “excreted into the urine” value is 10% and the half-life result was “about 36 hr”. Besides, in [4] (in vivo), the “blood-brain barrier passage (in words)” value was “does not pass the blood-brain barrier” and the “dose excreted intact into the bile (in words)” value was “Half of the dose”.
For `O=NN(CCCl)C(=O)NCCCl` [Carmustine, 1,3bis (2-chloroethyl)-1-nitrosourea], the “solubility in water (in words)” value in [8] is “poorly soluble in water”.
As for `CC[C@]1(O)C[C@H]2CN(CCc3c([nH]c4ccccc34)[C@@](C(=O)OC)(c3cc4c(cc3OC)N(C=O)[C@H]3[C@@](O)(C(=O)OC)[C@H](OC(C)=O)[C@]5(CC)C=CCN6CC[C@]43[C@@H]65)C2)C1` [Vincristine], in series [4] (in vivo), the “distribution in blood cells (in words)” value was “extensively concentrated in platelets” and the “plasma protein binding (in words)” value was “bind to plasma proteins”. Further, the “absorption (in words)” value in [4] is on record as “Unpredictable absorption”. The “tolerability / toxicity (in words)” value in series [9] was “sever neurological toxicity”.
In the case of `O=NN(CCCl)C(=O)NC1CCCCC1` [Lomustine, 1-(2-chloro-ethyl)-3-cyclohexyl-1 nitrosourea], the “ionization (in words)” value in series [8] (physiological pH) was “relatively unionized”. Besides, the “solubility in water (in words)” value in series [8] is “relatively insoluble”. In addition, the “tissue levels vs plasma levels (in words)” value in [4] (15 minutes after intravenous administration) is “comparable to plasma levels”. In [4] (within 24 hours, oral 30 mg/m^2 to 100 mg/m^2), the “excretion of radioactivity as degradation products (in words)” value is “about half”.
For the compound `CCC(=C(c1ccccc1)c1ccccc1)c1ccccc1` [triphenylbutene], in series [10], the inhibition at 5 µM turned out to be 13%. In addition, the “effect on adriamycin toxicity / chemosensitization (in words)” value in the series on MCF-7-AdrR cells is reported as “no effect”.
`N[C@H]1CONC1=O` [L-cycloserine]: in [6] (setting [12]), the “lipid-1 formation (in words)” value is “almost complete disappearance” and the “lipid-2 formation (in words)” value is recorded as “major inhibition”.
